Assay results from patent US8148373B2, “Compounds” (AstraZeneca AB, priority 2008, dated 2012).
Where a name gives a salt, the structure may show the parent alone.

Legend:
[1] = target: T1, human muscarinic acetylcholine M3 receptor (M3-ACh) (Homo sapiens, UniProt P20309); test: Muscarinic 3 Receptor Binding Assay ([3H]NMS competition, SPA); settings: [3H]NMS 0.1 nM, CHO-K1 cell membranes, 16 hours at room temperature; read-out: M3 pIC50 (converted)
T1 construct: expressed in transfected cells; host or cells: CHO-K1 (Chinese Hamster Ovary) cell membranes
Procedure, shortened: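 Competition SPA binding of 0.1 nM [3H]NMS (quarter Kd) to membranes from CHO-K1 cells expressing human M3, in 20 mM HEPES pH 7.4, 5 mM MgCl2, 1% DMSO. Incubated 16 h at room temperature; non-specific binding with 1 µM atropine. pIC50 from 50% reduction of specific binding.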

[2] = target: T2, Adrenergic β2 (H292 cells) (Homo sapiens, UniProt P07550); test: Assay for Adrenergic β2 Mediated cAMP Production (concentration response, AlphaScreen cAMP detection); format: cell-based; settings: for EC50: cAMP production, 60 minutes at room temperature, 300 μM rolipram, read-out: β2 pEC50 (converted); for β2 Intrinsic activity: fraction relative to the maximum activity determined for formoterol
T2 construct: endogenous in cells; host or cells: H292 cells
Procedure, shortened: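 H292 cells plated overnight, pre-treated with rolipram (300 μM final) 10 min, then compound 60 min at room temperature in HBSS/10 mM HEPES pH7.4/5 mM glucose, 1% DMSO. Lysate cAMP read by AlphaScreen against a cAMP standard curve; 4-parameter fit gives pEC50 and intrinsic activity as fraction of formoterol maximum.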

T2 sequence (P07550 whole entry): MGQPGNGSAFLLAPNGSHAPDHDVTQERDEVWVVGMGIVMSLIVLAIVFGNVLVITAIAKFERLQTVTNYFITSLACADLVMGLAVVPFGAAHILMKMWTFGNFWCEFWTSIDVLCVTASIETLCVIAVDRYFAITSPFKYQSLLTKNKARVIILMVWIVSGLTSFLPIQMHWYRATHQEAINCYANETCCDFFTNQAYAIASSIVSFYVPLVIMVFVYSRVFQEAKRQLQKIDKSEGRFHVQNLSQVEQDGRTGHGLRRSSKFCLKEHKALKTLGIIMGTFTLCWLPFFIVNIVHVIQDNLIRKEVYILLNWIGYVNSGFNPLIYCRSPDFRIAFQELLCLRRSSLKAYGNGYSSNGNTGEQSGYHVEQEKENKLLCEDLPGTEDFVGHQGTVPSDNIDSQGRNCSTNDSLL
T1 sequence (P20309 whole entry): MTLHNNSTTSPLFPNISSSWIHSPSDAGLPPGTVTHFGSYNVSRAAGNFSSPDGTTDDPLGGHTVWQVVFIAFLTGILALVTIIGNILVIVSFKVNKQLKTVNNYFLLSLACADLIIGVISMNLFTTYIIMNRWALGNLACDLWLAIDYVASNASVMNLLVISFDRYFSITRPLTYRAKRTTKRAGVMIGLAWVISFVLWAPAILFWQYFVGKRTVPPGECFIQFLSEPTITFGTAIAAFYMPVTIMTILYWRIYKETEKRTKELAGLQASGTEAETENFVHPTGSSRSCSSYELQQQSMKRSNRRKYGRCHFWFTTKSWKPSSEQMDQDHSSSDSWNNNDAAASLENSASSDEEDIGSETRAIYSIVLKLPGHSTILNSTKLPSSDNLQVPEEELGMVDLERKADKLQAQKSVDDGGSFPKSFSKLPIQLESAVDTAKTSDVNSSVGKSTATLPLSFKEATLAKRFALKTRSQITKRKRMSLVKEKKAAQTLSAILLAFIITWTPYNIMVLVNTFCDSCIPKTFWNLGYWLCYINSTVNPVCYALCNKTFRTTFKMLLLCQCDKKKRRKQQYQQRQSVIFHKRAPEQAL

SMILES | IC50 [1] [nM] | EC50 [2] [nM] | β2 Intrinsic activity [2]
CC(C)c1nc(C(=O)N2CCOC3(CCN(Cc4ccc(C(F)(F)F)c(CCNC[C@H](O)c5ccc(O)c6[nH]c(=O)sc56)c4)CC3)C2)cs1 [Example 270, (R)-4-Hydroxy-7-(1-hydroxy-2-(5-((4-(2-isopropylthiazole-4-carbonyl)-1-oxa-4,9-diazaspiro[5.5]undecan-9-yl)methyl)-2-(trifluoromethyl)phenethylamino)ethyl)benzo[d]thiazol-2(3H)-one ditrifluoroacetate] | 79.4 | 251 | 0.7
Cc1nc(C(=O)N2CCOC3(CCN(CCCOc4cccc(CNC[C@H](O)c5ccc(O)c6[nH]c(=O)ccc56)c4)CC3)C2)cs1 [Example 95, (R)-8-Hydroxy-5-(1-hydroxy-2-(3-(3-(4-(2-methylthiazole-4-carbonyl)-1-oxa-4,9-diazaspiro[5.5]undecan-9-yl)propoxy)benzylamino)ethyl)quinolin-2(1H)-one ditrifluoroacetate] | 1.58 | > 3200 | NV* (inactive up to a max concentration of 3.2 μM of test compound)
CCc1cc(C(=O)N2CCOC3(CCN(Cc4cc(F)cc(CCNC[C@H](O)c5ccc(O)c6[nH]c(=O)sc56)c4)CC3)C2)cs1 [Example 93, (R)-7-(2-(3-((4-(5-Ethylthiophene-3-carbonyl)-1-oxa-4,9-diazaspiro[5.5]undecan-9-yl)methyl)-5-fluorophenethylamino)-1-hydroxyethyl)-4-hydroxybenzo[d]thiazol-2(3H)-one ditrifluoroacetate] | 2.51 | 2.51 | 0.8
CC(C)c1csc(C(=O)N2CCOC3(CCN(Cc4cc(F)cc(CCNC[C@H](O)c5ccc(O)c6[nH]c(=O)sc56)c4)CC3)C2)n1 [Example 53, (R)-7-(2-(3-Fluoro-5-((4-(4-isopropylthiazole-2-carbonyl)-1-oxa-4,9-diazaspiro[5.5]undecan-9-yl)methyl)phenethylamino)-1-hydroxyethyl)-4-hydroxybenzo[d]thiazol-2(3H)-one ditrifluoroacetate] | 12.6 | 10 | 1
O=C(c1ccc2occc2c1)N1CCOC2(CCN(Cc3cccc(CCNC[C@H](O)c4ccc(O)c5[nH]c(=O)sc45)c3)CC2)C1 [Example 266, (R)-7-(2-(3-((4-(Benzofuran-5-carbonyl)-1-oxa-4,9-diazaspiro[5.5]undecan-9-yl)methyl)phenethylamino)-1-hydroxyethyl)-4-hydroxybenzo[d]thiazol-2(3H)-one ditrifluoroacetic acid] | 0.316 | 7.94 | 0.7
Cc1ccc(C(=O)N2CCOC3(CCN(Cc4cccc(CCNC[C@H](O)c5ccc(O)c6[nH]c(=O)ccc56)c4)CC3)C2)s1 [Example 9, (R)-8-Hydroxy-5-(1-hydroxy-2-(3-((4-(5-methylthiophene-2-carbonyl)-1-oxa-4,9-diazaspiro[5.5]undecan-9-yl)methyl)phenethylamino)ethyl)quinolin-2(1H)-one ditrifluoracetate] | 2 | 5.01 | 0.9
CC(C)c1nc(C(=O)N2CCOC3(CCN(CCCCCCCCCNC[C@H](O)c4ccc(O)c5[nH]c(=O)sc45)CC3)C2)cs1 [Example 109, (R)-4-Hydroxy-7-(1-hydroxy-2-(9-(4-(2-isopropylthiazole-4-carbonyl)-1-oxa-4,9-diazaspiro[5.5]undecan-9-yl)nonylamino)ethyl)benzo[d]thiazol-2(3H)-one formate] | 0.2 | 7.94 | 0.9
CC(C)c1nc(C(=O)N2CCOC3(CCN(CCC[S+]([O-])CCCCNC[C@H](O)c4ccc(O)c5[nH]c(=O)sc45)CC3)C2)cs1 (stereo partly drawn) [Example 282, 4-Hydroxy-7-((1R)-1-hydroxy-2-(4-(3-(4-(2-isopropylthiazole-4-carbonyl)-1-oxa-4,9-diazaspiro[5.5]undecan-9-yl)propylsulfinyl)butylamino)ethyl)benzo[d]thiazol-2(3H)-one formate] | 20 | 50.1 | 1
CCc1cc(C(=O)N2CCOC3(CCN(Cc4cccc(CCNC[C@H](O)c5ccc(O)c6[nH]c(=O)sc56)c4F)CC3)C2)cs1 [Example 91, (R)-7-(2-(3-((4-(5-Ethylthiophene-3-carbonyl)-1-oxa-4,9-diazaspiro[5.5]undecan-9-yl)methyl)-2-fluorophenethylamino)-1-hydroxyethyl)-4-hydroxybenzo[d]thiazol-2(3H)-one ditrifluoroacetate] | 2 | 1.26 | 0.7
Cc1ccc(S(=O)(=O)N2CCOC3(CCN(Cc4cc(F)cc(CCNC[C@H](O)c5ccc(O)c6[nH]c(=O)sc56)c4)CC3)C2)s1 [Example 63, (R)-7-(2-(3-Fluoro-5-((4-(5-methylthiophen-2-ylsulfonyl)-1-oxa-4,9-diazaspiro[5.5]undecan-9-yl)methyl)phenethylamino)-1-hydroxyethyl)-4-hydroxybenzo[d]thiazol-2(3H)-one ditrifluoroacetate] | > 1000 | 5.01 | 1

Results, then the compound that gave them:

IC50 [1] [nM] | EC50 [2] [nM] | β2 Intrinsic activity [2] | SMILES
2.51 | 79.4 | 0.9 | Cc1nc(C(=O)N2CCOC3(CCN(CCc4ccc(CCNC[C@H](O)c5ccc(O)c6[nH]c(=O)sc56)cc4)CC3)C2)cs1 [Example 5, (R)-4-Hydroxy-7-(1-hydroxy-2-(4-(2-(4-(2-methylthiazole-4-carbonyl)-1-oxa-4,9-diazaspiro[5.5]undecan-9-yl)ethyl)phenethylamino)ethyl)benzo[d]thiazol-2(3H)-one ditrifluoroacetate]
3.16 | 63.1 | 0.8 | Cc1nc(C(=O)N2CCOC3(CCN(CCOc4ccc(CNC[C@H](O)c5ccc(O)c6[nH]c(=O)sc56)cc4)CC3)C2)cs1 [Example 1, (R)-4-Hydroxy-7-(1-hydroxy-2-(4-(2-(4-(2-methylthiazole-4-carbonyl)-1-oxa-4,9-diazaspiro[5.5]undecan-9-yl)ethoxy)benzylamino)ethyl)benzo[d]thiazol-2(3H)-one ditrifluoroacetate]
3.98 | 39.8 | 1.0 | Cc1nc(C(=O)N2CCOC3(CCN(CCCOc4ccc(CNC[C@H](O)c5ccc(O)c6[nH]c(=O)sc56)cc4)CC3)C2)cs1 [Example 8, (R)-4-Hydroxy-7-(1-hydroxy-2-(4-(3-(4-(2-methylthiazole-4-carbonyl)-1-oxa-4,9-diazaspiro[5.5]undecan-9-yl)propoxy)benzylamino)ethyl)benzo[d]thiazol-2(3H)-one ditrifluoroacetate]
5.01 | 316 | 0.9 | Cc1nc(C(=O)N2CCOC3(CCN(CCOc4cccc(CNC[C@H](O)c5ccc(O)c6[nH]c(=O)sc56)c4)CC3)C2)cs1 [Example 10, (R)-4-Hydroxy-7-(1-hydroxy-2-(3-(2-(4-(2-methylthiazole-4-carbonyl)-1-oxa-4,9-diazaspiro[5.5]undecan-9-yl)ethoxy)benzylamino)ethyl)benzo[d]thiazol-2(3H)-one ditrifluoroacetate]
6.31 | > 3160 | 1.5 | Cc1nc(C(=O)N2CCOC3(CCN(CCOc4cc(C)c(CNC[C@H](O)c5ccc(O)c6[nH]c(=O)ccc56)cc4C)CC3)C2)cs1 [Example 97, (R)-5-(2-(2,5-Dimethyl-4-(2-(4-(2-methylthiazole-4-carbonyl)-1-oxa-4,9-diazaspiro[5.5]undecan-9-yl)ethoxy)benzylamino)-1-hydroxyethyl)-8-hydroxyquinolin-2(1H)-one ditrifluoroacetate]
0.794 | 12.6 | 1 | CCC(CC)c1nc(C(=O)N2CCOC3(CCN(Cc4cccc(CCNC[C@H](O)c5ccc(O)c6[nH]c(=O)sc56)c4)CC3)C2)cs1 [Example 265, (R)-4-Hydroxy-7-(1-hydroxy-2-(3-((4-(2-(pentan-3-yl)thiazole-4-carbonyl)-1-oxa-4,9-diazaspiro[5.5]undecan-9-yl)methyl)phenethylamino)ethyl)benzo[d]thiazol-2(3H)-one ditrifluoroacetate]
3.16 | 79.4 | 0.9 | Cc1cc(C(=O)N2CCOC3(CCN(CCOc4ccc(CNC[C@H](O)c5ccc(O)c6[nH]c(=O)sc56)cc4)CC3)C2)cs1 [Example 104, (R)-4-Hydroxy-7-(1-hydroxy-2-(4-(2-(4-(5-methylthiophene-3-carbonyl)-1-oxa-4,9-diazaspiro[5.5]undecan-9-yl)ethoxy)benzylamino)ethyl)benzo[d]thiazol-2(3H)-one formate]
10 | 15.8 | 0.9 | CCCCc1nc(C(=O)N2CCOC3(CCN(Cc4cccc(CCNC[C@H](O)c5ccc(O)c6[nH]c(=O)sc56)c4F)CC3)C2)cs1 [Example 78, (R)-7-(2-(3-((4-(2-Butylthiazole-4-carbonyl)-1-oxa-4,9-diazaspiro[5.5]undecan-9-yl)methyl)-2-fluorophenethylamino)-1-hydroxyethyl)-4-hydroxybenzo[d]thiazol-2(3H)-one ditrifluoroacetate]
